{
  "source": "patent US9593149B2",
  "about": "“Amylin and calcitonin receptor agonist” (Novo Nordisk A/S, priority 2014, dated 2017)",
  "key": {"[1]": {"target": "T1, human amylin 3(a) receptor (human calcitonin receptor + RAMP-3), BHK570 cells (Homo sapiens, UniProt O60896+P30988)", "T1 construct": "host or cells: BHK570", "assay": "Assay (II)b functional CRE-luciferase assay without albumin, human amylin receptor", "assay_type": "cell-based", "settings": "Tested without HSA; read-out: hAmylin-R funct. EC50", "procedure,_shortened": "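Agonism measured as CRE-driven luciferase luminescence after 3 h sample exposure at 37 °C, without albumin (0.1% ovalbumin, Hepes pH 7.4 medium). Reporter cells: BHK570 carrying human calcitonin receptor, co-transfected with RAMP-3 to form the amylin 3(a) receptor.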"}, "[2]": {"target": "T2, human amylin receptor (Amylin 3(a)/CRE-luc cell membranes) (Homo sapiens, UniProt O60896+P30988)", "T2 construct": "host or cells: BHK570", "T2 sequence (P30988 25-474)": "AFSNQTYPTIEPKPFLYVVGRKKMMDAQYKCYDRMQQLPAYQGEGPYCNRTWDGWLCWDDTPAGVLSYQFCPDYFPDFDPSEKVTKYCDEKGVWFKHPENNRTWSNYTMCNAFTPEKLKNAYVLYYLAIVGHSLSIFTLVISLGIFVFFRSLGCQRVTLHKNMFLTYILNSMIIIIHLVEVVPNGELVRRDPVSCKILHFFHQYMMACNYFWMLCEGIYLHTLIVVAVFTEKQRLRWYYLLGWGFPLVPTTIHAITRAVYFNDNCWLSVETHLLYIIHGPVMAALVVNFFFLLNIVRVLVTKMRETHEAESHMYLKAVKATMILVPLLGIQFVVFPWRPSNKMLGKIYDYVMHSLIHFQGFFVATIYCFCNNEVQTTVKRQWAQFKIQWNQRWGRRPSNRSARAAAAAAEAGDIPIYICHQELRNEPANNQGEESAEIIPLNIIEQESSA", "T2 sequence (O60896 24-148 partner)": "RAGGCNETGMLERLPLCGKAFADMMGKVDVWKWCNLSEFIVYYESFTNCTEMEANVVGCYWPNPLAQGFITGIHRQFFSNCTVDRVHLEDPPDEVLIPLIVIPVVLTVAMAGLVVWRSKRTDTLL", "assay": "Assay (V) binding to the human amylin receptor (membrane, SPA)", "settings": "125I-rat amylin, read-out: hAmylin-R binding IC50", "method": "The binding assay was performed using scintillation proximity assay (SPA) beads (RPNQ0001) from PerkinElmer and cell membranes from the Amylin 3(a)/CRE-luc cells (as described in Assay (II)) were used. Membranes were prepared in the following way; the cells were rinsed with PBS and incubated with Versene for approximately 5 min before harvesting. The cells were flushed with PBS and the cell-suspension was centrifuged for 5 min at 1000 rpm. Cells were homogenized (ultrathurrax) in a buffer containing 20 mM Na-HEPES and 10 mM EDTA (pH 7.4) and centrifuged at 20.000 rpm for 15 min. The resulting pellet was resuspended, homogenized and centrifuged (20.000 rpm, 15 min) in a buffer containing 20 mM Na-HEPES and 0.1 mM EDTA (pH 7.4, buffer 2). The resulting pellet was resuspended in buffer 2 and protein concentration was tested (BCA protein Assay, Pierce). The homogenate was kept cold during the whole procedure. The membranes were kept at −80° C. until use. The assay was performed in a 384 well Optiplate (PerkinElmer) in a total volume of 40 ul. Membranes were mixed with SPA beads. Final concentration of membranes 35 ng/μL final and SPA beads was 0.05 mg/well. […] Samples were analyzed on TopCounter™ (Packard). The IC50 was calculated using (one site binding competition analysis) GraphPad Prism5 as a measure of receptor affinity."}},
  "note": "Numbered stars: 1 amine (or outer) side, 2 acyl side, 3 side chain; on linkers, the order of the positions; unused ones are H or OH. Side chains are listed from the residue outwards. Peptide text beside a SMILES is read from it. * marks the point of attachment. C20 diacid = O=C(O)CCCCCCCCCCCCCCCCCCC(=O)*; C18 diacid = O=C(O)CCCCCCCCCCCCCCCCC(=O)*; γGlu = O=C(O)[C@H](CCC(=O)[*:2])N[*:1]",
  "data": [
    {"compound": "CC(C)C[C@H](NC(=O)[C@H](C)NC(=O)[C@H](C)NC(=O)[C@@H](NC(=O)[C@H](CO)NC(=O)[C@H](CC(C)C)NC(=O)[C@H](CCC(=O)O)NC(=O)[C@H](CO)NC(=O)[C@H](C)NC(=O)[C@H](C)NC(=O)CC[C@H](NC(=O)CCCCCCCCCCCCCCCCCCC(=O)O)C(=O)O)[C@@H](C)O)C(=O)NCC(=O)N[C@@H](CCCNC(=N)N)C(=O)N[C@@H](CC(C)C)C(=O)N[C@@H](CO)C(=O)N[C@@H](C)C(=O)N[C@@H](CCC(=O)O)C(=O)N[C@@H](CC(C)C)C(=O)N[C@@H](Cc1c[nH]cn1)C(=O)N[C@@H](CCC(=O)O)C(=O)N[C@@H](CC(C)C)C(=O)N[C@@H](C)C(=O)N[C@H](C(=O)N[C@@H](Cc1ccc(O)cc1)C(=O)N1CCC[C@H]1C(=O)N[C@@H](CCCNC(=N)N)C(=O)N[C@H](C(=O)N[C@@H](CCC(=O)O)C(=O)N[C@H](C(=O)NCC(=O)N[C@@H](CO)C(=O)NCC(=O)N[C@@H](CO)C(=O)N1CCC[C@H]1C(N)=O)[C@@H](C)O)[C@@H](C)O)[C@@H](C)O", "note": "[compound 57, [N-terminal(C20 diacid-gGlu), 1A, 23Y, 30S, 31G]mimylin] ({C20 diacid-γGlu}-AASELSTAALGRLSAELHELATYPRTETGSGSP-NH2)", "values": [
      {"measurement": "EC50", "setting": "[1]", "result": 0.02, "unit": "nM"}
    ]},
    {"compound": "CC(C)C[C@H](NC(=O)[C@H](CCC(=O)O)NC(=O)[C@H](C)NC(=O)[C@@H](NC(=O)[C@H](CC(C)C)NC(=O)[C@H](CCCNC(=N)N)NC(=O)CNC(=O)[C@H](CC(C)C)NC(=O)[C@@H](NC(=O)[C@H](C)NC(=O)[C@@H](NC(=O)[C@@H](NC(=O)[C@H](CC(C)C)NC(=O)[C@H](CCC(=O)O)NC(=O)[C@H](CO)NC(=O)[C@H](C)NC(=O)CC[C@H](NC(=O)CCCCCCCCCCCCCCCCC(=O)O)C(=O)O)[C@@H](C)O)[C@@H](C)O)C(C)C)[C@@H](C)O)C(=O)N[C@@H](Cc1c[nH]cn1)C(=O)N[C@@H](CCC(=O)O)C(=O)N[C@@H](CC(C)C)C(=O)N[C@@H](CCC(=O)O)C(=O)N[C@H](C(=O)N[C@@H](CC(C)C)C(=O)N1CCC[C@H]1C(=O)N[C@@H](CCCNC(=N)N)C(=O)N[C@H](C(=O)N[C@@H](CCC(=O)O)C(=O)N[C@H](C(=O)NCC(=O)N[C@H](C(=O)NCC(=O)N[C@H](C(=O)N1CCC[C@H]1C(N)=O)[C@@H](C)O)[C@@H](C)O)[C@@H](C)O)[C@@H](C)O)[C@@H](C)O", "note": "[compound 105, [N-terminal(C18 diacid-gGlu), des1, 6T, 9V, 14T, 21E, 30T, 31G, 32T]mimylin] ({C18 diacid-γGlu}-ASELTTAVLGRLTAELHELETLPRTETGTGTP-NH2)", "values": [
      {"measurement": "IC50", "setting": "[2]", "result": 0.309, "unit": "nM"}
    ]},
    {"compound": "CC(=O)N[C@@H](C)C(=O)N[C@@H](CO)C(=O)N[C@@H](CCCCNC(=O)CC[C@H](NC(=O)CCCCCCCCCCCCCCCCCCC(=O)O)C(=O)O)C(=O)N[C@@H](CC(C)C)C(=O)N[C@@H](CO)C(=O)N[C@H](C(=O)N[C@@H](C)C(=O)N[C@@H](C)C(=O)N[C@@H](CC(C)C)C(=O)NCC(=O)N[C@@H](CCCNC(=N)N)C(=O)N[C@@H](CC(C)C)C(=O)N[C@@H](CO)C(=O)N[C@@H](C)C(=O)N[C@@H](CCC(=O)O)C(=O)N[C@@H](CC(C)C)C(=O)N[C@@H](Cc1c[nH]cn1)C(=O)N[C@@H](CCC(=O)O)C(=O)N[C@@H](CC(C)C)C(=O)N[C@@H](C)C(=O)N[C@H](C(=O)N[C@@H](CC(C)C)C(=O)N1CCC[C@H]1C(=O)N[C@@H](CCCNC(=N)N)C(=O)N[C@H](C(=O)N[C@@H](CCC(=O)O)C(=O)N[C@H](C(=O)NCC(=O)N[C@@H](CO)C(=O)NCC(=O)N[C@@H](CO)C(=O)N1CCC[C@H]1C(N)=O)[C@@H](C)O)[C@@H](C)O)[C@@H](C)O)[C@@H](C)O", "note": "[compound 68, [N-terminal(acetyl), des1, 4K(C20 diacid-gGlu), 30S, 31G]mimylin] (Ac-ASK([γGlu-C20 diacid])LSTAALGRLSAELHELATLPRTETGSGSP-NH2)", "values": [
      {"measurement": "EC50", "setting": "[1]", "result": 0.036, "unit": "nM"},
      {"measurement": "IC50", "setting": "[2]", "result": 0.05, "unit": "nM"}
    ]}
  ]
}
